Laboratory results from paper PMC6471591, “Preparation of Sesquiterpene Lactone Derivatives: Cytotoxic Activity and Selectivity of Action” (Molecules, 2019).
Read-outs that look alike come from different tables or passages of the source.

Columns and labels:
[1] = system: human solid tumor cell lines (A549, HBL-100, HeLa, SW1573, T-47D, WiDr); assay: Antiproliferative SRB assay, whole panel of tumor cell lines; assay type: cell-based; conditions: for antiproliferative activity in words: tumor cell line panel, compared to cumanin (1); for GI50: Homo sapiens, all tested tumor cell lines, SRB, 48 h, read-out: GI50 values, range over all tested cell lines
Experimental: (§1) In vitro antiproliferative activity was evaluated using the protocol of the National Cancer Institute (NCI) after 48 h of drug exposure using the sulforhodamine B (SRB) assay. […] We cannot discard that increasing lipophilicity may well result in an increase in cytotoxicity in vitro.
(§2) The following human solid tumor cell lines were used in this study: HBL-100 (breast), HeLa (cervix), SW1573 (non-small cell lung), T-47D (breast), A549 (lung), and WiDr (colon). Cells were maintained in 25 cm^2 culture flasks in RPMI 1640 supplemented with 5% heat-inactivated fetal calf serum and 2 mM L-glutamine in a 37 °C, 5% CO2, 95% humidified air incubator. Exponentially growing cells were trypsinized and resuspended in antibiotic containing medium (100 units penicillin G and 0.1 mg of streptomycin per mL). Single-cell suspensions displaying >97% viability by trypan blue dye exclusion test were subsequently counted. After counting, dilutions were made to give the appropriate cell densities for inoculation onto 96-well microtiter plates. Cells were inoculated in a volume of 100 μL per well at densities of 20,000 (WiDr), 15,000 (T-47D and A549), and 10,000 (HeLa, SW1573, and HBL-100) cells per well, based on their doubling times.
(§3) Chemosensitivity tests were performed using the SRB assay of the NCI with slight modifications. Briefly, pure compounds were initially dissolved in DMSO at 400 times the desired final maximum test concentration. Control cells were exposed to an equivalent concentration of DMSO (0.25% v/v, negative control). Each agent was tested in triplicate at different dilutions in the range 1–100 μM. Drug treatment started on day 1 after plating. Drug incubation periods were 48 h, after which cells were precipitated with 25 μL of ice-cold 50% (w/v) trichloroacetic acid and fixed for 60 min at 4 °C. Then, the SRB assay was performed. Optical density (OD) of each well was measured at 492 nm, using BioTek’s PowerWave XS Absorbance Microplate Reader (Highland Park, Winooski, VT, USA). Values were corrected for background OD from wells containing only culture medium. The percentage growth (PG) was calculated with respect to untreated control cells (C) at each level of drug concentrations based on the difference in OD at the start time (T0) and at the end of drug exposure (T), according to NCI formulas. Therefore, if T is greater than or equal to T0, the calculation is 100 × [(T–T0)/(C–T0)]. If T is lower than T0, denoting cell death, the calculation is 100 × [(T–T0)/(T0)]. The effect is defined as the growth percentage, where 50% growth inhibition (GI50) represents the concentration at which PG is +50. Based on these calculations, a PG value of 0 corresponds to the number of cells present at the beginning of drug exposure, while negative PG values denote net cell death.

[2] = system: A549 cells; assay: Antiproliferative SRB assay (NCI protocol), 48 h; assay type: cell-based, human; conditions: splenocyte CC50 versus A549 GI50
[3] = system: HBL100 cells; assay: Antiproliferative SRB assay (NCI protocol), 48 h; assay type: cell-based, human; conditions: splenocyte CC50 versus HBL100 GI50
[4] = system: WiDr cells; assay: Antiproliferative SRB assay (NCI protocol), 48 h; assay type: cell-based, human; conditions: for GI50: Homo sapiens, WiDr (colon), SRB, 48 h drug exposure, read-out: 50% growth inhibition (GI50) ± SD, WiDr; for Selectivity Index, WiDr: splenocyte CC50 versus WiDr GI50
Experimental: as §1, §2, §3

[5] = system: T47-D cells; assay: Antiproliferative SRB assay (NCI protocol), 48 h; assay type: cell-based, human; conditions: for GI50: Homo sapiens, T47D, T47-D (breast), SRB, 48 h drug exposure, read-out: 50% growth inhibition (GI50) ± SD, T47-D; for Selectivity Index, T47-D: splenocyte CC50 versus T47-D GI50
Experimental: as §1, §2, §3

[6] = system: SW1573 cells; assay: Antiproliferative SRB assay (NCI protocol), 48 h; assay type: cell-based, human; conditions: for GI50: Homo sapiens, SW1573 (non-small cell lung), SRB, 48 h drug exposure, read-out: 50% growth inhibition (GI50) ± SD, SW1573; for Selectivity Index, SW1573: splenocyte CC50 versus SW1573 GI50
Experimental: as §1, §2, §3

[7] = system: HBL100 cells; assay: Antiproliferative SRB assay (NCI protocol), 48 h; assay type: cell-based; conditions: Homo sapiens, HBL-100; HBL100 (breast), SRB, 48 h drug exposure; read-out: 50% growth inhibition (GI50) ± SD, HBL100
Experimental: as §1, §2, §3

[8] = system: A549 cells; assay: Antiproliferative SRB assay (NCI protocol), 48 h; assay type: cell-based; conditions: Homo sapiens; A549 (lung), SRB, 48 h drug exposure; read-out: 50% growth inhibition (GI50) ± SD, A549
Experimental: as §1, §2, §3

[9] = system: HeLa cells; assay: Antiproliferative SRB assay (NCI protocol), 48 h; assay type: cell-based; conditions: Homo sapiens; HeLa (cervix), SRB, 48 h drug exposure; read-out: 50% growth inhibition (GI50) ± SD, HeLa
Experimental: as §1, §2, §3

[10] = system: HeLa cells; assay: Antiproliferative SRB assay (NCI protocol), 48 h; assay type: cell-based, human; conditions: splenocyte CC50 versus HeLa GI50
[11] = Cytotoxicity on primary cell culture (propidium iodide, flow cytometry); assay type: cell-based
Experimental: The cytotoxicity of the sesquiterpene lactones and its derivatives was evaluated using mouse splenocytes. […] Cumanin derivatives (4–11) have shown CC50 values and selectivity indexes higher than natural compound 1. […] The incorporation of two triazole groups in cumanin (1) reduced cytotoxicity on normal cells and improved selectivity against tumor cell lines.
In a 96-well plate, spleen cells from Balb/c mouse (1.5 × 10^5) were incubated with different drug dilutions (200, 100, 50, 10, and 5 μg/mL) in RPMI medium containing 10% fetal calf serum. After 48 h of incubation at 37 °C (5% CO2), cells were harvested, washed once with PBS, and stained with 2.5 μg/mL propidium iodide (PI) for 5 min at room temperature. Subsequently, cell death was assessed by flow cytometry using a BD FACSaria II cytometer. Cells incubated only with a drug vehicle were used as a 100% viability control and death percentage was calculated according to the following formula: Death(%)=[1−(%PI^−cells)drug−treated/(%PI^−cells)100% viability control]×100.
Then the concentration capable of causing cell death in 50% of splenocytes (CC50) was determined using a non-linear regression approach.

| SMILES | antiproliferative activity in words [1] | Selectivity Index, A549 [2] | Selectivity Index, HBL100 [3] | GI50 [4] [µM] | Selectivity Index, WiDr [4] | GI50 [5] [µM] | Selectivity Index, T47-D [5] | GI50 [6] [µM] | Selectivity Index, SW1573 [6] | GI50 [7] [µM] | GI50 [8] [µM] | GI50 [9] [µM] | Selectivity Index, HeLa [10] | CC50 at 48 h ([11]; primary mouse splenocytes (spleen cells), Balb/c mouse spleen cells, 48 h incubation, PI staining, read-out: CC50 ± SD, splenocytes (concentration that causes 50% cell death)) [µM] | GI50 [1] [µM] | CC50 at 48 h ([11]; Balb/c, mouse) [µM] |
| --- | --- | --- | --- | --- | --- | --- | --- | --- | --- | --- | --- | --- | --- | --- | --- | --- |
| C=C1C(=O)O[C@@H]2C[C@H](C)[C@@H]3C[C@H](OC(C)=O)[C@H](OC(C)=O)[C@@]3(C)C[C@H]12 [Compound 4] | moderate activity | 10.0 | 10.5 | 27 | 8.9 | 26 | 9.3 | 11 | 21.9 | 23 | 24 | 16 | 15.0 |  |  |  |
| C#CCOC1CC2C(C)CC3OC(=O)C(=C)C3CC2(C)C1O (stereo not shown) [Compound 8] | moderate activity | 10.0 | 10.6 | 7.2 | 25.1 | 24 | 7.5 | 28 | 6.4 | 17 | 18 | 19 | 9.5 |  |  |  |
| C#CCOC1CC2C(C)CC3OC(=O)C(=C)C3CC2(C)C1OCC#C (stereo not shown) [Compound 9] | moderate activity | 5.5 | 4.9 | 2.1 | 44.5 | 24 | 3.9 | 20 | 4.7 | 19 | 17 | 24 | 3.9 |  |  |  |
| C=C1C(=O)OC2CC(C)C3CC(OCc4cn(Cc5ccccc5)nn4)C(O)C3(C)CC12 (stereo not shown) [Compound 10] | moderate activity | 6.3 | 3.9 | 30 | 3.8 | 37 | 3.1 | 32 | 3.5 | 29 | 18 | 32 | 3.5 | 114 |  |  |
| C=C1C(=O)O[C@@H]2C[C@@H](C)[C@@H]3C=CC(=O)[C@@]3(C)[C@@H](O[Si](C)(C)C)[C@H]12 [Compound 13] |  | 1.9 | 3.0 | 0.56 | 2.0 | 0.29 | 3.8 | 0.28 | 3.9 | 0.36 | 0.59 | 0.19 | 5.8 |  | 0.15 to 0.59 | 1.1 |
| C=C1C(=O)O[C@@H]2C[C@@H](C)[C@@H]3C=CC(=O)[C@@]3(C)[C@@H](O[Si](C)(C)C(C)C)[C@H]12 [Compound 14] |  | 5.0 | 7.0 | 0.26 | 5.4 | 0.36 | 3.9 | 0.19 | 7.4 | 0.2 | 0.28 | 0.15 | 9.3 |  | 0.15 to 0.59 | 1.4 |
| C=C1C(=O)O[C@@H]2[C@H]1CC[C@H](C)[C@@]1(O[Si](C)(C)C)C=CC(=O)[C@@]21C [Compound 15] |  | 0.7 | 0.5 | 6.8 | 0.3 | 4.2 | 0.5 | 2.4 | 0.9 | 4.6 | 3.4 | 3.3 | 0.7 |  |  | 2.3 |
